The text below walks through data of patent US20110207807A1, “NEW USE FOR HOMOISOFLAVONE OR A SALT THEREOF” (Catholic University Industry Academy Cooperation Foundation, priority 2008, published 2011).

Assay [1] concerns intracellular reactive oxygen species (ROS). The assay can be described thus: Intracellular ROS induced by UV radiation (DCFH-DA fluorescence microscopy). In kind it is cell-based, human. The conditions noted are these: HaCaT cells, 1 μg/mL, UV 100 J/m^2, compared to UV only (FIG. 1). The method, then: Human keratinocyte cell line HaCaT cells (acquired from Professor N. Fusenig of the German Cancer Research Center) were inoculated on a 60-mm culture dish (5×10^5 cells; 1×10^6 cells for a 100-mm culture dish) and cultured for 24 hours in Dulbecco's modified Eagle's medium (DMEM) containing 10% fetal bovine serum (FBS).
Then, after treating with homoisoflavanone of Chemical Formula 1 (R=OCH3) at a concentration of 1 μg/mL for 1 hour, the cells were washed 3 times with phosphate buffered saline (PBS). In order to generate reactive oxygen species (ROS), the cells were irradiated with UV at 100 J/m^2 using a UV lamp (FSX 24 T12/UVB/HO, Pansol™, USA). Immediately after the UV radiation, the cells were washed again with PBS and further cultured for 4 hours in DMEM containing 1% FBS, while treating with homoisoflavanone at the same concentration. Then, after treating for 30 minutes in Hank's balanced salt solution (HBSS, BioWhittaker, Cambrex, USA) with 25 μM 2,7-dichlorofluorescein diacetate (DCFH-DA), the cells were washed 3 times with PBS.
Thereafter, the ROS induced by UV were measured using a fluorescence microscope (Carl Zeiss, USA). Test groups were subdivided as follows: non-treated group—treated with neither UV nor homoisoflavanone; test group A—treated with homoisoflavanone only; control group—treated with UV only; test group B—treated with UV and homoisoflavanone.

Another assay relates to rat mast cells. The assay can be described thus: Antigen (DNP-IgE/DNP-HSA)-induced degranulation of rat mast cells (hexosaminidase release). The assay is classed as cell-based. Conditions: at 2 μg/mL, DNP-IgE / 10 ng/mL DNP-HSA, concentration-dependent (FIG. 8c). The method, then:
Further, the effect of homoisoflavanone on degranulation of rat mast cells induced by antigen was investigated. 5×10^4 rat mast cells were inoculated on a 6-well plate and cultured in MEM containing 15% FBS for 24 hours. Then, after reacting with 1 μg/mL DNP-IgE for 16 hours and then removing DNP-IgE by washing with PBS, the cells were cultured in 15% MEM for 6 hours. After pretreating with homoisoflavanone in Tyrode's solution for 30 minutes, the cells were treated with 10 ng/mL DNP-human serum albumin (HSA) to induce degranulation by transmitting the signals induced by the antigen. 30 minutes later, the supernatant was collected and the pellets were lysed with 0.5% triton X-100 (500 μL). The supernatant and the lysed pellets (70 μL) were incubated at 37° C. for 90 minutes in 0.1 M sodium citrate solution (pH 4.5) containing 8 mM p-nitrophenyl-N-acetyl-β-d-glucosaminide (70 μL). Then, after adding 0.2 M glycine (pH 10.7, 70 μL) to stop the reaction, absorbance was measured at 405 nm. Total enzymatic activity was calculated by the following equation.
Release amount=(Absorbance of supernatant)÷(Absorbance of supernatant+Absorbance of pellets)×100%

The subject of a further assay is IL-8. The assay can be described thus: UV-induced IL-8 mRNA expression in HaCaT cells (real-time PCR). The assay is classed as cell-based, human. The conditions noted are these: 1 μg/mL, UV 100 J/m^2, compared to control group (FIG. 3). As for the experimental part:
1×10^6 HaCaT cells were inoculated on a 100-mm culture dish and cultured in DMEM containing 10% FBS for 24 hour. Then, the cells were starved by culturing for 24 hours in DMEM containing 1% FBS. Then, after treating with homoisoflavanone at 1 μg/mL for 1 hour, the cells were washed 3 times with PBS and irradiated with UV at 100 J/m^2 to induce increase of cytokines. Immediately after the UV radiation, the cells were washed again with PBS and further cultured for 2 or 5 hours in DMEM containing 1% FBS which had been treated with homoisoflavanone at the same concentration.
After extracting RNA from the cells of each test group using TRIzol (Invitrogen, USA), cDNA was prepared by carrying out PCR (PTC-225 Peltier thermal cycler, MJ Research, USA). Then, the mRNA expression of IL-6, IL-8 and TNF-α was measured through real-time PCR (Roter Gene 6000 series, Corbett Research, Australia) using the cDNA as template and using commercially available IL-6, IL-8 and TNF-α primers. The expression level of the pro-inflammatory cytokines was compared relative to the non-treated group.
(Real-time PCR tracks product formation cycle by cycle.)

Structures are written as SMILES.

Consider `COc1ccc(CC2COc3cc(O)cc(O)c3C2=O)cc1O` (stereo not drawn) [homoisoflavanone], for which the “generation of intracellular ROS induced by UV” value in assay [1] is “decreased significantly”. Besides, the “inhibition of antigen-induced degranulation (hexosaminidase release)” value in the assay on rat mast cells was 50%. Moreover, the “expression of IL-8 (mRNA) induced by UV” value in the assay on IL-8 was “decreased expression”.
